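Following 48 hours of exposure in 96-well plates, responses at five concentrations were used to interpolate endpoints linearly. GI50: concentration for 50% inhibition of growth.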 Activity calls are given as the source filed them. Cut-off read from the data, not from the text of the source: active = GI50 up to about 1.1 µM and inactive = higher.
What was measured:
Assay in all cases: NCI-60 cell line screen, 48 h
[1] = system: 786-0
[2] = system: A498
[3] = system: A549
[4] = system: ACHN
[5] = system: CAKI-1
[6] = system: CCRF-CEM
[7] = system: COLO 205
[8] = system: DLD-1
[9] = system: DMS-114
[10] = system: DMS-273
[11] = system: EKVX
[12] = system: HCC 2998
[13] = system: HCT-116
[14] = system: HCT-15
[15] = system: HOP-18
[16] = system: HOP-62
[17] = system: HOP-92
[18] = system: HT-29
[19] = system: IGROV-1
[20] = system: K562
[21] = system: KM-20L2
[22] = system: KM12
[23] = system: LOX IMVI
[24] = system: LXFL 529
[25] = system: M14
[26] = system: M19-MEL
[27] = system: MOLT-4
[28] = system: Malme-3M
[29] = system: NCI-H226
[30] = system: NCI-H23
[31] = system: NCI-H460
[32] = system: NCI-H522
[33] = system: OVCAR-3
[34] = system: OVCAR-4
[35] = system: OVCAR-5
[36] = system: OVCAR-8
[37] = system: RXF 393
[38] = system: SF-268
[39] = system: SF-295
[40] = system: SF-539
[41] = system: SK-MEL-28
[42] = system: SK-MEL-2
[43] = system: SK-MEL-5
[44] = system: SK-OV-3
[45] = system: SN12C
[46] = system: SNB-19
[47] = system: SNB-75
[48] = system: SNB-78
[49] = system: SW-620
[50] = system: TK-10
[51] = system: U-251
[52] = system: UACC-257
[53] = system: UACC-62
[54] = system: UO-31
[55] = system: XF498
[56] = system: HL-60
[57] = system: MCF7
[58] = system: NCI/ADR-RES
[59] = system: RPMI-8226

Q: For `Cc1cc(Cl)cc2c1NC(=O)C2=O.O=C(c1ccccc1)C(F)(F)F`, which GI50 [1] is on record?
A: 70.1 µM (inactive)

Q: What about the GI50 [2] of the same molecule?
A: > 100 µM (inactive)

Q: And the GI50 [3]?
A: 52.2 µM (inactive)

Q: What about the GI50 [4] of the same molecule?
A: 75.7 µM (inactive)

Q: What about the GI50 [5] of the same molecule?
A: 39.3 µM (inactive)

Q: What about the GI50 [6] of the same molecule?
A: 17.2 µM (inactive)

Q: What about the GI50 [7] of the same molecule?
A: 57.7 µM (inactive)

Q: What about the GI50 [8] of the same molecule?
A: 60.1 µM (inactive)

Q: And the GI50 [9]?
A: 30.7 µM (inactive)

Q: And the GI50 [10]?
A: 50.7 µM (inactive)

Q: And the GI50 [11]?
A: 49 µM (inactive)

Q: And the GI50 [12]?
A: > 100 µM (inactive)

Q: And the GI50 [13]?
A: 59.8 µM (inactive)

Q: And the GI50 [14]?
A: 64.4 µM

Q: What about the GI50 [15] of the same molecule?
A: 59.7 µM (inactive)

Q: What about the GI50 [16] of the same molecule?
A: > 100 µM (inactive)

Q: And the GI50 [17]?
A: 52.6 µM (inactive)

Q: What about the GI50 [18] of the same molecule?
A: 78 µM (inactive)

Q: What about the GI50 [19] of the same molecule?
A: > 100 µM (inactive)

Q: And the GI50 [20]?
A: 32.4 µM (inactive)

Q: What about the GI50 [21] of the same molecule?
A: 76 µM (inactive)

Q: And the GI50 [22]?
A: 61 µM (inactive)

Q: What about the GI50 [23] of the same molecule?
A: 15.3 µM (inactive)

Q: What about the GI50 [24] of the same molecule?
A: 56.1 µM (inactive)

Q: And the GI50 [25]?
A: 67 µM (inactive)

Q: And the GI50 [26]?
A: 13.3 µM (inactive)

Q: What about the GI50 [27] of the same molecule?
A: 20.1 µM (inactive)

Q: And the GI50 [28]?
A: 45.6 µM (inactive)

Q: What about the GI50 [29] of the same molecule?
A: > 100 µM (inactive)

Q: And the GI50 [30]?
A: > 100 µM (inactive)

Q: What about the GI50 [31] of the same molecule?
A: 70.5 µM (inactive)

Q: What about the GI50 [32] of the same molecule?
A: 24.7 µM (inactive)

Q: And the GI50 [33]?
A: 35.3 µM (inactive)

Q: And the GI50 [34]?
A: 33 µM (inactive)

Q: What about the GI50 [35] of the same molecule?
A: > 100 µM (inactive)

Q: And the GI50 [36]?
A: 55.5 µM (inactive)

Q: What about the GI50 [37] of the same molecule?
A: 73.3 µM (inactive)

Q: What about the GI50 [38] of the same molecule?
A: > 100 µM (inactive)

Q: What about the GI50 [39] of the same molecule?
A: 56.2 µM (inactive)

Q: And the GI50 [40]?
A: 47.9 µM (inactive)

Q: And the GI50 [41]?
A: 93.1 µM (inactive)

Q: And the GI50 [42]?
A: 36 µM (inactive)

Q: And the GI50 [43]?
A: 41.7 µM (inactive)

Q: What about the GI50 [44] of the same molecule?
A: > 100 µM (inactive)

Q: What about the GI50 [45] of the same molecule?
A: 54 µM (inactive)

Q: And the GI50 [46]?
A: 72.4 µM (inactive)

Q: And the GI50 [47]?
A: 41.1 µM (inactive)

Q: What about the GI50 [48] of the same molecule?
A: 24.4 µM (inactive)

Q: And the GI50 [49]?
A: 72.8 µM (inactive)

Q: And the GI50 [50]?
A: 57.5 µM (inactive)

Q: What about the GI50 [51] of the same molecule?
A: 85.9 µM (inactive)

Q: And the GI50 [52]?
A: 27.5 µM (inactive)

Q: And the GI50 [53]?
A: 19.9 µM (inactive)

Q: And the GI50 [54]?
A: 91.6 µM (inactive)

Q: And the GI50 [55]?
A: 30.1 µM (inactive)

Q: What does the source list for `O=C1C2=C(C3=NCCc4c[nH]c1c43)C1(C=C(Br)C(O)C(Br)=C1)CCN2` (stereo not drawn)?
A: GI50 [2]: 9.95 µM (inactive); GI50 [3]: 3.15 µM (inactive); GI50 [5]: 4.4 µM (inactive); GI50 [6]: 1.96 µM (inactive); GI50 [7]: 0.115 µM (active); GI50 [8]: 1.67 µM (inactive); GI50 [9]: 0.202 µM (active); GI50 [10]: 1.03 µM (active); GI50 [11]: 1.07 µM (active); GI50 [12]: 1.18 µM (inactive); GI50 [13]: 0.625 µM (active); GI50 [14]: 1.16 µM; GI50 [56]: 0.558 µM (active); GI50 [15]: 10.7 µM (inactive); GI50 [16]: 17.9 µM (inactive); GI50 [17]: 2.92 µM (inactive); GI50 [18]: 0.312 µM (active); GI50 [19]: 0.881 µM (active); GI50 [20]: 2.3 µM (inactive); GI50 [21]: 0.317 µM (active); GI50 [22]: 1.82 µM (inactive); GI50 [23]: 0.736 µM (active); GI50 [26]: 0.38 µM (active); GI50 [57]: 0.433 µM (active); GI50 [27]: 0.721 µM (active); GI50 [29]: 3.4 µM (inactive); GI50 [30]: 0.792 µM (active); GI50 [31]: 2.33 µM (inactive); GI50 [32]: 0.284 µM (active); GI50 [58]: 0.421 µM (active); GI50 [33]: 1.03 µM (active); GI50 [34]: 1.47 µM (inactive); GI50 [35]: 2.65 µM (inactive); GI50 [36]: 0.647 µM (active); GI50 [59]: 1.9 µM (inactive); GI50 [37]: 2.56 µM (inactive); GI50 [38]: 0.966 µM (active); GI50 [39]: 2.48 µM (inactive); GI50 [40]: 2.05 µM (inactive); GI50 [41]: 7.69 µM (inactive); GI50 [42]: 3.2 µM (inactive); GI50 [43]: 1.07 µM (active); GI50 [44]: 13.3 µM (inactive); GI50 [45]: 1.29 µM (inactive); GI50 [46]: 11.1 µM (inactive); GI50 [47]: 10 µM (inactive); GI50 [48]: 2.79 µM (inactive); GI50 [49]: 0.541 µM (active); GI50 [51]: 2.26 µM (inactive); GI50 [52]: 0.614 µM (active); GI50 [53]: 0.851 µM (active); GI50 [54]: 11.1 µM (inactive); GI50 [55]: 7.67 µM (inactive)
